# Data published in PubChem BioAssay (NCI).
#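 Grown in 96-well plates, cells were treated for 48 hours with each compound at five concentrations. Insufficient inhibition: endpoint recorded as highest concentration tested. GI50: concentration for 50% inhibition of growth. TGI denotes the concentration required for complete inhibition of growth.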
# Assays:
# Assay in all cases: growth of human tumour cells (NCI), 48 h
# [1] = tested on: 786-0 renal
# [2] = tested on: A498 renal
# [3] = tested on: A549 NSCLC
# [4] = tested on: ACHN renal
# [5] = tested on: CAKI-1 renal
# [6] = tested on: CCRF-CEM leukemia
# [7] = tested on: COLO 205 colon
# [8] = tested on: DU-145 prostate
# [9] = tested on: EKVX NSCLC
# [10] = tested on: HCC-2998 colon
# [11] = tested on: HCT-116 colon
# [12] = tested on: HCT-15 colon
# [13] = tested on: HL-60(TB) leukemia
# [14] = tested on: HOP-62 NSCLC
# [15] = tested on: HT29 colon
# [16] = tested on: IGROV1 ovarian
# [17] = tested on: K-562 leukemia
# [18] = tested on: KM12 colon
# [19] = tested on: LOX IMVI melanoma
# [20] = tested on: M14 melanoma
# [21] = tested on: MALME-3M melanoma
# [22] = tested on: MCF7 breast
# [23] = tested on: MDA-MB-231 breast
# [24] = tested on: MDA-MB-435
# [25] = tested on: MDA-N
# [26] = tested on: MOLT-4 leukemia
# [27] = tested on: NCI-H226 lung
# [28] = tested on: NCI-H23 lung
# [29] = tested on: NCI-H460 lung
# [30] = tested on: NCI-H522 lung
# [31] = tested on: NCI/ADR-RES ovarian
# [32] = tested on: OVCAR-3 ovarian
# [33] = tested on: OVCAR-4 ovarian
# [34] = tested on: OVCAR-5 ovarian
# [35] = tested on: PC-3 prostate
# [36] = tested on: RXF 393 renal
# [37] = tested on: SF-268 CNS
# [38] = tested on: SF-295 CNS
# [39] = tested on: SF-539 CNS
# [40] = tested on: SK-MEL-2 melanoma
# [41] = tested on: SK-MEL-28 melanoma
# [42] = tested on: SK-MEL-5 melanoma
# [43] = tested on: SK-OV-3 ovarian
# [44] = tested on: SN12C renal
# [45] = tested on: SNB-19 CNS
# [46] = tested on: SNB-75 CNS
# [47] = tested on: SR leukemia
# [48] = tested on: SW-620 colon
# [49] = tested on: T-47D breast
# [50] = tested on: U251 CNS
# [51] = tested on: UACC-257 melanoma
# [52] = tested on: UACC-62 melanoma
# [53] = tested on: UO-31 renal
# [54] = tested on: BT-549 breast
# [55] = tested on: OVCAR-8 ovarian
# [56] = tested on: RPMI-8226 leukemia
# [57] = tested on: TK-10 renal
# [58] = tested on: HOP-92 NSCLC
# [59] = tested on: HS 578T breast
smiles,measurement,setting,value
CCCCCCCCCCCCCCCC(=O)OCC(O)C1OC(=O)C(O)=C1O (centres undefined),TGI,[1],38800 nM
same,TGI,[2],77000 nM
same,TGI,[3],42900 nM
same,TGI,[4],98700 nM
same,TGI,[5],96600 nM
same,TGI,[6],47500 nM
same,TGI,[7],> 100000 nM
same,TGI,[8],> 100000 nM
same,TGI,[9],> 100000 nM
same,TGI,[10],> 100000 nM
same,TGI,[11],36700 nM
same,TGI,[12],> 100000 nM
same,TGI,[13],65900 nM
same,TGI,[14],60300 nM
same,TGI,[15],38800 nM
same,TGI,[16],84500 nM
same,TGI,[17],77700 nM
same,TGI,[18],53000 nM
same,TGI,[19],46200 nM
same,TGI,[20],36200 nM
same,TGI,[21],> 100000 nM
same,TGI,[22],4810 nM
same,TGI,[23],54200 nM
same,TGI,[24],42400 nM
same,TGI,[25],94600 nM
same,TGI,[26],> 100000 nM
same,TGI,[27],47100 nM
same,TGI,[28],96300 nM
same,TGI,[29],> 100000 nM
same,TGI,[30],> 100000 nM
same,TGI,[31],79800 nM
same,TGI,[32],> 100000 nM
same,TGI,[33],> 100000 nM
same,TGI,[34],95400 nM
same,TGI,[35],> 100000 nM
same,TGI,[36],86800 nM
same,TGI,[37],60400 nM
same,TGI,[38],40400 nM
same,TGI,[39],53200 nM
same,TGI,[40],> 100000 nM
same,TGI,[41],41400 nM
same,TGI,[42],> 100000 nM
same,TGI,[43],> 100000 nM
same,TGI,[44],96900 nM
same,TGI,[45],91400 nM
same,TGI,[46],46000 nM
same,TGI,[47],> 100000 nM
same,TGI,[48],> 100000 nM
same,TGI,[49],> 100000 nM
same,TGI,[50],61700 nM
same,TGI,[51],> 100000 nM
same,TGI,[52],75000 nM
same,TGI,[53],59900 nM
Cc1cc2[nH]c3c(C#N)c(-c4ccccc4)c(N=Nc4cccc(C(F)(F)F)c4)c(=O)n3c2cc1C,TGI,[1],> 100000 nM
same,TGI,[2],> 100000 nM
same,TGI,[3],> 100000 nM
same,TGI,[4],> 100000 nM
same,TGI,[54],> 100000 nM
same,TGI,[5],> 100000 nM
same,TGI,[6],> 100000 nM
same,TGI,[7],> 100000 nM
same,TGI,[9],> 100000 nM
same,TGI,[10],> 100000 nM
same,TGI,[11],> 100000 nM
same,TGI,[12],> 100000 nM
same,TGI,[14],> 100000 nM
same,TGI,[16],> 100000 nM
same,TGI,[18],> 100000 nM
same,TGI,[19],> 100000 nM
same,TGI,[20],> 100000 nM
same,TGI,[21],> 100000 nM
same,TGI,[22],> 100000 nM
same,TGI,[23],> 100000 nM
same,TGI,[24],> 100000 nM
same,TGI,[25],> 100000 nM
same,TGI,[27],> 100000 nM
same,TGI,[28],93400 nM
same,TGI,[29],> 100000 nM
same,TGI,[30],69400 nM
same,TGI,[31],> 100000 nM
same,TGI,[32],57000 nM
same,TGI,[33],> 100000 nM
same,TGI,[34],> 100000 nM
same,TGI,[55],> 100000 nM
same,TGI,[35],> 100000 nM
same,TGI,[56],> 100000 nM
same,TGI,[36],> 100000 nM
same,TGI,[37],> 100000 nM
same,TGI,[38],> 100000 nM
same,TGI,[39],> 100000 nM
same,TGI,[40],> 100000 nM
same,TGI,[41],> 100000 nM
same,TGI,[42],51800 nM
same,TGI,[43],> 100000 nM
same,TGI,[44],> 100000 nM
same,TGI,[45],> 100000 nM
same,TGI,[46],> 100000 nM
same,TGI,[48],> 100000 nM
same,TGI,[49],> 100000 nM
same,TGI,[57],> 100000 nM
same,TGI,[50],> 100000 nM
same,TGI,[51],> 100000 nM
same,TGI,[53],> 100000 nM
Cn1c(COC(=O)N2CCCCC2)nc2c(N3CCOCC3)nc(-c3ccccc3)nc21,GI50,[1],732 nM
same,TGI,[1],2000 nM
same,GI50,[2],1370 nM
same,TGI,[2],2690 nM
same,GI50,[3],1480 nM
same,TGI,[3],3450 nM
same,GI50,[4],352 nM
same,TGI,[4],1290 nM
same,GI50,[54],1010 nM
same,TGI,[54],2260 nM
same,GI50,[5],354 nM
same,TGI,[5],1510 nM
same,GI50,[6],307 nM
same,TGI,[6],1480 nM
same,GI50,[7],1030 nM
same,TGI,[7],2630 nM
same,GI50,[8],1010 nM
same,TGI,[8],2310 nM
same,GI50,[9],1220 nM
same,TGI,[9],2650 nM
same,GI50,[10],1580 nM
same,TGI,[10],3040 nM
same,GI50,[11],173 nM
same,TGI,[11],471 nM
same,GI50,[12],212 nM
same,TGI,[12],509 nM
same,GI50,[13],592 nM
same,TGI,[13],2440 nM
same,GI50,[14],1420 nM
same,TGI,[14],3210 nM
same,GI50,[58],492 nM
same,TGI,[58],1930 nM
same,GI50,[59],698 nM
same,TGI,[59],2910 nM
same,GI50,[15],417 nM
same,TGI,[15],1590 nM
same,GI50,[16],534 nM
same,TGI,[16],1810 nM
same,GI50,[17],364 nM
same,TGI,[17],6700 nM
same,GI50,[18],1460 nM
same,TGI,[18],3220 nM
same,GI50,[19],166 nM
same,TGI,[19],337 nM
same,GI50,[20],509 nM
same,TGI,[20],1890 nM
same,GI50,[21],1390 nM
same,TGI,[21],2720 nM
same,GI50,[22],378 nM
same,TGI,[22],1790 nM
same,GI50,[23],1020 nM
same,TGI,[23],2270 nM
same,GI50,[24],580 nM
same,TGI,[24],1860 nM
same,GI50,[26],353 nM
same,TGI,[26],2000 nM
same,GI50,[27],1590 nM
same,TGI,[27],3620 nM
same,GI50,[28],1480 nM
same,TGI,[28],3110 nM
same,GI50,[29],1580 nM
same,TGI,[29],3270 nM
same,GI50,[30],406 nM
same,TGI,[30],1760 nM
same,GI50,[31],1670 nM
same,TGI,[31],5720 nM
same,GI50,[32],182 nM
same,TGI,[32],390 nM
same,GI50,[33],638 nM
same,TGI,[33],1850 nM
same,GI50,[34],1420 nM
same,TGI,[34],2970 nM
same,GI50,[55],1030 nM
same,TGI,[55],2570 nM
same,GI50,[35],666 nM
same,TGI,[35],2150 nM
same,GI50,[56],257 nM
same,TGI,[56],814 nM
same,GI50,[36],508 nM
same,TGI,[36],1760 nM
same,GI50,[37],1330 nM
same,TGI,[37],2710 nM
same,GI50,[38],1580 nM
same,TGI,[38],2970 nM
same,GI50,[39],1330 nM
same,TGI,[39],2610 nM
same,GI50,[40],1640 nM
same,TGI,[40],3250 nM
same,GI50,[41],1520 nM
same,TGI,[41],2860 nM
same,GI50,[42],1470 nM
same,TGI,[42],2790 nM
same,GI50,[43],2640 nM
same,TGI,[43],10500 nM
same,GI50,[44],868 nM
same,TGI,[44],2170 nM
same,GI50,[45],1510 nM
same,TGI,[45],2860 nM
same,GI50,[46],817 nM
same,TGI,[46],2180 nM
same,GI50,[47],287 nM
same,TGI,[47],2340 nM
same,GI50,[48],235 nM
same,TGI,[48],539 nM
same,GI50,[49],1470 nM
same,TGI,[49],3910 nM
same,GI50,[57],1350 nM
same,TGI,[57],2660 nM
same,GI50,[50],1370 nM
same,TGI,[50],2810 nM
same,GI50,[51],1220 nM
same,TGI,[51],2670 nM
same,GI50,[52],1270 nM
same,TGI,[52],2540 nM
same,GI50,[53],260 nM
same,TGI,[53],1450 nM
